In US20100129289A1, “COMPOSITIONS AND METHODS FOR THE DETECTION OF VULNERABLE PLAQUE” (THE OHIO STATE UNIVERSITY RESEARCH FOUNDATION, priority 2006, published 2010):
Ends that are not written are not given here.

What was measured:
[1] = test system: atherosclerotic lesion endothelium of ApoE knockout mice; settings: mouse; cited from earlier work
[2] = test system: human atherosclerotic lesions; settings: cited from earlier work
[3] = test system: WHHL rabbit aortic tissue (intima); test: Resected WHHL rabbit aortic tissue peptide binding assay; settings: Exp217 (FIG. 19); five to seven tissue samples per peptide
Method: Experiments were performed to determine if the synthesized peptides could bind to the intima of the WHHL (diseased) rabbits but not to the NZW (control) rabbits. The following procedure is shown schematically in FIG. 2. The animals were anesthetized, injected with 0.7-1.0 mL heparin, and perfused with 200-300 mL Hanks buffered salt solution containing 1% BSA. A segment of the aorta comprising the aortic arch to the bifurcation of the aorta in the lower abdomen was removed and placed in a buffer solution of Hanks w/1% BSA and 1% protease inhibitor cocktail (Sigma, P8340). The aorta segments were opened longitudinally and sliced into individual pieces approximately 1-2 mm^2 each. These pieces were then placed into tubes containing individual peptides at a concentration of 5 μg/mL in the same buffer solution described above.
The tissue sections were incubated with individual peptides for 45-60 minutes at room temperature. Samples were washed 3× with PBS followed by incubation with SA-HRP or anti-FLAG-HRP in the same buffer for 45-60 minutes at room temperature. After another 3× washing, the samples were incubated with DAB for 30 minutes in the same buffer. After a final round of washing, tissue samples were imaged with a dissecting microscope and analyzed for the presence of brown staining on the endothelial surface. […] Some tissue sections received no peptide incubation; rather they were exposed only to SA-HRP or anti-FLAG-HRP as a control.

## CAPGPSKSC (cysteine pairing not given here; also: N-terminal biotin or C-terminal FLAG, which one not given here) [Peptide 12]
[1]
  binding to atherosclerotic lesion endothelium of ApoE knockout mice in vivo: bound
[2]
  binding to human atherosclerotic lesions ex vivo: bound
[3]
  positive binding / staining on WHHL tissue samples: stained
